In the supplement of paper PMC10883282:
Structures can show the parent of a compound that is named as a salt. ± gives the standard deviation of the averaged measurements.

Test system: SW1353
Experiment: relative viability vs DMSO control (72 h) (fraction); higher = more viable cells
Summary of the method: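 Percent growth from ATPLite readings, averaged over up to triplicate wells, was used as relative viability. Sarcoma cell lines were seeded into 384-well plates for 80–90% confluence, dosed after 24 h, and kept 72 h at 37 °C, 5% CO2. Data were rescaled to a range where 1 is full and 0 is none.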

`O=C(Nc1cnn2ccc(N3CCC[C@@H]3c3cc(F)ccc3F)nc12)N1CC[C@H](O)C1` [Larotrectinib] showed a relative viability (0.00017 µM) of 1.07 ± 0.043, a relative viability (0.00051 µM) of 1.07 ± 0.027 and a relative viability (0.00152 µM) of 1 ± 0.033. For the same compound, the relative viability (0.00457 µM) was 1.01 ± 0.057, the relative viability (0.01372 µM) was 1.03 ± 0.034 and the relative viability (0.04115 µM) was 0.954 ± 0.026. It also gave a relative viability (0.1235 µM) of 0.99 ± 0.025, a relative viability (0.3704 µM) of 0.9488 ± 0.0041 and a relative viability (1.111 µM) of 0.984 ± 0.053. The relative viability (3.333 µM) was 0.979 ± 0.025 and the relative viability (10 µM) was 0.921 ± 0.047.
For `C[C@@H]1COCCN1c1cc(-c2ccnn2C)c2ccnc(-c3ccn[nH]3)c2n1`, the relative viability (0.00017 µM) was 0.988 ± 0.026, the relative viability (0.00051 µM) was 0.94 ± 0.015 and the relative viability (0.00152 µM) was 0.974 ± 0.035. It also gave a relative viability (0.00457 µM) of 0.978 ± 0.065, a relative viability (0.01372 µM) of 0.933 ± 0.059 and a relative viability (0.04115 µM) of 0.872 ± 0.028. For the same compound, the relative viability (0.1235 µM) was 0.769 ± 0.026, the relative viability (0.3704 µM) was 0.624 ± 0.027 and the relative viability (1.111 µM) was 0.507 ± 0.0081. For the same compound, the relative viability (3.333 µM) was 0.41 ± 0.005 and the relative viability (10 µM) was 0.392 ± 0.014.
For `CC(C)N1CCN(Cc2cnc(-c3cc(-c4cccc5[nH]ccc45)cc4[nH]ncc34)o2)CC1` [Nemiralisib], the relative viability (0.00017 µM) was 1.07 ± 0.033, the relative viability (0.00051 µM) was 0.997 ± 0.044 and the relative viability (0.00152 µM) was 0.992 ± 0.023. The relative viability (0.00457 µM) was 0.99 ± 0.032, the relative viability (0.01372 µM) was 0.983 ± 0.02 and the relative viability (0.04115 µM) was 0.965 ± 0.043. The relative viability (0.1235 µM) was 0.948 ± 0.04, the relative viability (0.3704 µM) was 0.914 ± 0.025 and the relative viability (1.111 µM) was 0.85 ± 0.053. It also gave a relative viability (3.333 µM) of 0.721 ± 0.044 and a relative viability (10 µM) of 0.59 ± 0.067.
In the case of `COc1cccc2c1C(=O)c1c(O)c3c(c(O)c1C2=O)C[C@@](O)(C(=O)CO)C[C@@H]3O[C@H]1C[C@H](N)[C@H](O)[C@H](C)O1` [Doxorubicin Hydrochloride], the relative viability (0.00017 µM) is reported as 0.948 ± 0.043, the relative viability (0.00051 µM) is reported as 0.971 ± 0.029 and the relative viability (0.00152 µM) is reported as 0.958 ± 0.022. It also gave a relative viability (0.00457 µM) of 0.949 ± 0.013, a relative viability (0.01372 µM) of 0.882 ± 0.043 and a relative viability (0.04115 µM) of 0.81 ± 0.013. For the same compound, the relative viability (0.1235 µM) was 0.661 ± 0.029, the relative viability (0.3704 µM) was 0.376 ± 0.017 and the relative viability (1.111 µM) was 0.162 ± 0.0035. It also gave a relative viability (3.333 µM) of 0.181 ± 0.011 and a relative viability (10 µM) of 0.115 ± 0.0047.
Compound `Nc1cc(C(F)(F)F)c(-c2cc(N3CCOCC3)nc(N3CCOCC3)n2)cn1` [Buparlisib] has a relative viability (0.00017 µM) of 0.984 ± 0.018, a relative viability (0.00051 µM) of 0.956 ± 0.011 and a relative viability (0.00152 µM) of 0.971 ± 0.011. For the same compound, the relative viability (0.00457 µM) was 0.982 ± 0.042, the relative viability (0.01372 µM) was 0.966 ± 0.059 and the relative viability (0.04115 µM) was 0.9295 ± 0.0043. It also gave a relative viability (0.1235 µM) of 0.889 ± 0.03, a relative viability (0.3704 µM) of 0.835 ± 0.018 and a relative viability (1.111 µM) of 0.654 ± 0.0079. It also gave a relative viability (3.333 µM) of 0.381 ± 0.015 and a relative viability (10 µM) of 0.266 ± 0.0047.
`Cc1cc(Nc2ncnc3ccc(NC4=NC(C)(C)CO4)cc23)ccc1Oc1ccn2ncnc2c1` [Tucatinib] gave a relative viability (0.00017 µM) of 1.06 ± 0.053, a relative viability (0.00051 µM) of 1.04 ± 0.03 and a relative viability (0.00152 µM) of 1.06 ± 0.03. For the same compound, the relative viability (0.00457 µM) was 1.04 ± 0.043, the relative viability (0.01372 µM) was 0.989 ± 0.045 and the relative viability (0.04115 µM) was 0.931 ± 0.026. The relative viability (0.1235 µM) was 0.936 ± 0.031, the relative viability (0.3704 µM) was 0.895 ± 0.026 and the relative viability (1.111 µM) was 0.855 ± 0.053. For the same compound, the relative viability (3.333 µM) was 0.897 ± 0.064 and the relative viability (10 µM) was 0.936 ± 0.0098.
Compound `Cc1nc(-c2cn3c(n2)-c2ccc(-c4cnn(C(C)(C)C(N)=O)c4)cc2OCC3)n(C(C)C)n1` [Taselisib] has a relative viability (0.00017 µM) of 0.925 ± 0.035, a relative viability (0.00051 µM) of 0.933 ± 0.02 and a relative viability (0.00152 µM) of 0.953 ± 0.025. It also gave a relative viability (0.00457 µM) of 0.971 ± 0.013, a relative viability (0.01372 µM) of 0.884 ± 0.043 and a relative viability (0.04115 µM) of 0.856 ± 0.031. The relative viability (0.1235 µM) was 0.785 ± 0.03, the relative viability (0.3704 µM) was 0.762 ± 0.014 and the relative viability (1.111 µM) was 0.69 ± 0.021. It also gave a relative viability (3.333 µM) of 0.599 ± 0.021 and a relative viability (10 µM) of 0.469 ± 0.0077.
In the case of `CN1CCC(COc2cnc(-c3cccc(Cn4nc(-c5cccc(C#N)c5)ccc4=O)c3)nc2)CC1` [Tepotinib], the relative viability (0.00017 µM) is reported as 1.025 ± 0.0083, the relative viability (0.00051 µM) is reported as 1.02 ± 0.015 and the relative viability (0.00152 µM) is reported as 1.01 ± 0.021. The relative viability (0.00457 µM) was 1.01 ± 0.018, the relative viability (0.01372 µM) was 0.984 ± 0.028 and the relative viability (0.04115 µM) was 0.988 ± 0.035. The relative viability (0.1235 µM) was 0.951 ± 0.029, the relative viability (0.3704 µM) was 0.976 ± 0.039 and the relative viability (1.111 µM) was 0.93 ± 0.046. The relative viability (3.333 µM) was 0.977 ± 0.027 and the relative viability (10 µM) was 0.573 ± 0.17.
`CNC(=O)c1cc(Oc2ccc(NC(=O)Nc3ccc(Cl)c(C(F)(F)F)c3)c(F)c2)ccn1` [Regorafenib] was tested, and the relative viability (0.00017 µM) was 1.11 ± 0.029, the relative viability (0.00051 µM) was 1.05 ± 0.05 and the relative viability (0.00152 µM) was 1.07 ± 0.017. The relative viability (0.00457 µM) was 1.08 ± 0.021, the relative viability (0.01372 µM) was 1.04 ± 0.096 and the relative viability (0.04115 µM) was 1.01 ± 0.043. It also gave a relative viability (0.1235 µM) of 1.08 ± 0.044, a relative viability (0.3704 µM) of 0.996 ± 0.07 and a relative viability (1.111 µM) of 0.978 ± 0.047. It also gave a relative viability (3.333 µM) of 0.919 ± 0.036 and a relative viability (10 µM) of 0.555 ± 0.02.
With `CCCS(=O)(=O)Nc1ccc(F)c(C(=O)c2c[nH]c3ncc(-c4ccc(Cl)cc4)cc23)c1F` [Vemurafenib] the relative viability (0.00017 µM) was 0.958 ± 0.033, the relative viability (0.00051 µM) was 0.979 ± 0.055 and the relative viability (0.00152 µM) was 0.965 ± 0.038. The relative viability (0.00457 µM) was 0.954 ± 0.052, the relative viability (0.01372 µM) was 1.01 ± 0.011 and the relative viability (0.04115 µM) was 0.993 ± 0.022. The relative viability (0.1235 µM) was 0.949 ± 0.032, the relative viability (0.3704 µM) was 0.981 ± 0.031 and the relative viability (1.111 µM) was 0.925 ± 0.015. The relative viability (3.333 µM) was 0.703 ± 0.024 and the relative viability (10 µM) was 0.567 ± 0.14.
In the case of `COc1c(OCCCN2CCOCC2)ccc2c1N=C(NC(=O)c1cnc(N)nc1)N1CCN=C21` [Copanlisib], the relative viability (0.00017 µM) is reported as 1.08 ± 0.053, the relative viability (0.00051 µM) is reported as 1.05 ± 0.054 and the relative viability (0.00152 µM) is reported as 1.01 ± 0.025. It also gave a relative viability (0.00457 µM) of 0.917 ± 0.011, a relative viability (0.01372 µM) of 0.845 ± 0.033 and a relative viability (0.04115 µM) of 0.743 ± 0.047. The relative viability (0.1235 µM) was 0.635 ± 0.045, the relative viability (0.3704 µM) was 0.518 ± 0.011 and the relative viability (1.111 µM) was 0.441 ± 0.015. It also gave a relative viability (3.333 µM) of 0.412 ± 0.03 and a relative viability (10 µM) of 0.364 ± 0.017.
In the case of `CC(=O)Nc1cccc(-n2c(=O)n(C3CC3)c(=O)c3c(Nc4ccc(I)cc4F)n(C)c(=O)c(C)c32)c1` [Trametinib], the relative viability (0.00017 µM) is reported as 1.02 ± 0.025, the relative viability (0.00051 µM) is reported as 1.01 ± 0.034 and the relative viability (0.00152 µM) is reported as 0.942 ± 0.024. It also gave a relative viability (0.00457 µM) of 0.862 ± 0.014, a relative viability (0.01372 µM) of 0.745 ± 0.014 and a relative viability (0.04115 µM) of 0.69 ± 0.031. The relative viability (0.1235 µM) was 0.642 ± 0.029, the relative viability (0.3704 µM) was 0.613 ± 0.012 and the relative viability (1.111 µM) was 0.571 ± 0.025. The relative viability (3.333 µM) was 0.5524 ± 0.0038 and the relative viability (10 µM) was 0.509 ± 0.019.
In the case of `COCc1c(-c2cc3cc(C)cc(OC)c3s2)c2c(N)ncnn2c1CN1CCNC(=O)C1` [Rogaratinib], the relative viability (0.00017 µM) is reported as 1.075 ± 0.01, the relative viability (0.00051 µM) is reported as 1.03 ± 0.021 and the relative viability (0.00152 µM) is reported as 0.977 ± 0.025. For the same compound, the relative viability (0.00457 µM) was 1.01 ± 0.036, the relative viability (0.01372 µM) was 0.964 ± 0.032 and the relative viability (0.04115 µM) was 0.901 ± 0.028. The relative viability (0.1235 µM) was 0.879 ± 0.0097, the relative viability (0.3704 µM) was 0.819 ± 0.031 and the relative viability (1.111 µM) was 0.795 ± 0.014. The relative viability (3.333 µM) was 0.757 ± 0.013 and the relative viability (10 µM) was 0.691 ± 0.021.
For `COc1cc2/c(=N/c3ccc(Br)cc3F)nc[nH]c2cc1OCC1CCN(C)CC1` [Vandetanib], the relative viability (0.00017 µM) was 0.952 ± 0.029, the relative viability (0.00051 µM) was 0.962 ± 0.017 and the relative viability (0.00152 µM) was 0.941 ± 0.04. The relative viability (0.00457 µM) was 0.988 ± 0.018, the relative viability (0.01372 µM) was 0.976 ± 0.029 and the relative viability (0.04115 µM) was 0.952 ± 0.032. The relative viability (0.1235 µM) was 0.957 ± 0.045, the relative viability (0.3704 µM) was 0.9245 ± 0.0051 and the relative viability (1.111 µM) was 0.92 ± 0.013. For the same compound, the relative viability (3.333 µM) was 0.558 ± 0.019 and the relative viability (10 µM) was 0.0143 ± 0.0022.
